Assay results from PMC2783949 (Bioorganic & medicinal chemistry, 2009).
Entries after “also recorded” stand apart in the source; their conditions may differ.

Tests used:
[1] = molecular target: catalytic subunit of E. coli ATCase (Escherichia coli, UniProt P0A786); conditions: for mode of inhibition: relative to carbamyl phosphate; for Inhibition Constant (Ki): pH 8.3
solid tumors = conditions: mice; cited from earlier work
murine leukemias = conditions: cited from earlier work
[2] = Oxidation of H-phosphinate 2 into PALA, 31P-NMR monitoring; format: physicochemical; conditions: neutralized compound, over a period of two weeks

Sequence of catalytic subunit of E. coli ATCase (P0A786 2-311): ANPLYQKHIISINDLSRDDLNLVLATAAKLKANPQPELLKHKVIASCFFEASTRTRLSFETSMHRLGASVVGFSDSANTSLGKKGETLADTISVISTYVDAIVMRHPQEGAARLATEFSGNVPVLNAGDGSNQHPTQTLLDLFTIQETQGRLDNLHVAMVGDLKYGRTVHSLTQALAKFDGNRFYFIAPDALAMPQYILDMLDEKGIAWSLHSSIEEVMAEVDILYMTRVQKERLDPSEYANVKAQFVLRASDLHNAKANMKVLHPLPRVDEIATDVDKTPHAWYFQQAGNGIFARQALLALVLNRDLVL

SMILES: O=C(O)C[C@H](NC(=O)CC(C(=O)O)C(=O)O)C(=O)O [Compound 38]
- inhibition of ATCase (in words) [1]: none of the carboxylates 38, 40, and 42 displayed any significant inhibition

SMILES: O=C(O)C[C@H](NC(=O)CP(=O)(O)CCO)C(=O)O [Compound 22]
- inhibition of ATCase (in words) [1]: significant inhibitory activity
- mode of inhibition [1]: uncompetitive

SMILES: O=C(O)C[C@H](NC(=O)C[PH](=O)CO)C(=O)O (some centres unmarked) [Compound 3]
- inhibition of ATCase (in words) [1]: submicromolar inhibitors

SMILES: NC(=O)OP(=O)(O)O [carbamyl phosphate]
- Km ([1]; substrate of ATCase): 28 µM

SMILES: O=C(O)C[C@H](NC(=O)OCP(=O)(O)O)C(=O)O [Compound 32, 2-Phosphonomethyl-oxycarbonylamino-succinic acid]
- inhibition of ATCase (in words) [1]: does not inhibit ATCase at all
- Inhibition Constant (Ki) [1]: inactive

SMILES: O=C(O)C[C@@H](C(=O)O)N1CP(=O)(O)CC1=O [Compound 19, 2-(3-Hydroxy-3,5-dioxo-3l5-[1,3]azaphospholidin-1-yl)-succinic acid]
- inhibition of ATCase (in words) [1]: inactive
- Inhibition Constant (Ki) [1]: inactive

SMILES: O=C(O)CCC(=O)N[C@@H](CC(=O)O)C(=O)O [Compound 42]
- inhibition of ATCase (in words) [1]: none of the carboxylates 38, 40, and 42 displayed any significant inhibition

SMILES: O=C(O)C[C@H](NC(=O)CP(=O)(O)CC(=O)O)C(=O)O [Compound 24]
- mode of inhibition [1]: competitive inhibitor

SMILES: O=C(O)C[C@H](NC(=O)CP(=O)(O)O)C(=O)O [Compound 1, N-phosphonacetyl-L-aspartate]
- effect on solid tumors (solid tumors): eradicated solid tumors in mice
- effect on murine leukemias (murine leukemias): murine leukemias were resistant

SMILES: O=C(O)C[C@H](NC(=O)C[PH](=O)O)C(=O)O [Compound 2]
- oxidation of 2 into PALA [2]: could not be detected
- inhibition of ATCase (in words) [1]: good inhibitor; also recorded: submicromolar inhibitors

SMILES: O=C(O)CC(=O)N[C@@H](CC(=O)O)C(=O)O [Compound 40]
- inhibition of ATCase (in words) [1]: none of the carboxylates 38, 40, and 42 displayed any significant inhibition; also recorded: inactive

SMILES: O=C(O)C[C@@H](C(=O)O)N1CCP(=O)(O)CC1=O [Compound 27, 2-(4-Hydroxy-2,4-dioxo-4λ[5]-[1,4]azaphosphinan-1-yl)-succinic acid]
- inhibition of ATCase (in words) [1]: significant inhibition; also recorded: micromolar-level inhibitor
- Km(CP)/Ki ([1]; Km of carbamyl phosphate over Ki of inhibitor): 28

SMILES: O=C(O)C[C@@H](C(=O)O)N1CCP(=O)(O)CC1 [Compound 14]
- inhibition of ATCase (in words) [1]: totally inactive
- Inhibition Constant (Ki) [1]: inactive
